Measured values as given in publication PMC9369231, “Bile Acid–Drug Interaction via Organic Anion-Transporting Polypeptide 4C1 Is a Potential Mechanism of Altered Pharmacokinetics of Renally Excreted Drugs” (International Journal of Molecular Sciences, 2022).

Experiments:
Assay type in all cases: cell-based
[1] = target: T1, OATP4C1 (organic anion-transporting polypeptide 4C1) (Homo sapiens, UniProt Q6ZQN7); assay: inhibition of T3 uptake in OATP4C1/MDCKII cells, LC/MS/MS, mock subtracted
T1 construct: gene SLCO4C1; stably expressed in MDCKII cells (G418), butyrate-induced
T1 sequence (Q6ZQN7 1-724): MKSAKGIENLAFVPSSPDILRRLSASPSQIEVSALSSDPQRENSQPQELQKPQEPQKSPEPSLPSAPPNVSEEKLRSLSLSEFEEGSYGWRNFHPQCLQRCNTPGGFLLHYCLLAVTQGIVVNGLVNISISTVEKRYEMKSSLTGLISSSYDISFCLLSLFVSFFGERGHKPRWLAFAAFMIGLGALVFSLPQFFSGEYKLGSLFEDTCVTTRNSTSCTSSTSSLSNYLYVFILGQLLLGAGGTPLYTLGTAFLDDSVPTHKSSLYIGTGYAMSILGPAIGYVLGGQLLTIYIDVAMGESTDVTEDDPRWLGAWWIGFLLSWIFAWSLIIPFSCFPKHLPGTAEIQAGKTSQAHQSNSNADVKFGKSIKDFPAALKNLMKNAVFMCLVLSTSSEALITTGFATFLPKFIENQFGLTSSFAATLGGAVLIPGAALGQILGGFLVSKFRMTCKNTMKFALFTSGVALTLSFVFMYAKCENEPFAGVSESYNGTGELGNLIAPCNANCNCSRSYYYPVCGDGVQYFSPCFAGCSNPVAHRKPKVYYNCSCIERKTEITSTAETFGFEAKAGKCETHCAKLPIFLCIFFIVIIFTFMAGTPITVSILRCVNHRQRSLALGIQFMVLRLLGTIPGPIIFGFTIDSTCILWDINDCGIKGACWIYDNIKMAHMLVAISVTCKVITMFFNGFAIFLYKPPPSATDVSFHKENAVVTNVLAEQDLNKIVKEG
Excerpt: inhibition of T3 uptake in OATP4C1/MDCKII cells, LC/MS/MS, mock subtracted on OATP4C1 (organic anion-transporting polypeptide 4C1)

[2] = target: T1, OATP4C1 (organic anion-transporting polypeptide 4C1); assay: inhibition of T3 uptake in OATP4C1/MDCKII cells; Ki calculated from IC50 as IC50/([…]+[S]/Km)
[3] = target: T1, OATP4C1 (organic anion-transporting polypeptide 4C1); assay: inhibition of T3 uptake in OATP4C1/MDCKII cells, LC/MS/MS, mock subtracted; conditions: MDCK-II

IC50 [1] [µM]	Ki [2] [µM]	Structure (SMILES)	inhibition at 50 µM [3] [%]
6.12 ± 1.21	5.23 ± 1.03	C[C@H](CCC(=O)O)[C@H]1CC[C@H]2[C@@H]3CC[C@@H]4C[C@H](O)CC[C@]4(C)[C@H]3CC[C@]12C [LCA]	–
–	–	C[C@H](CCC(=O)NCCS(=O)(=O)O)[C@H]1CC[C@H]2[C@@H]3CC[C@@H]4C[C@H](OS(=O)(=O)O)CC[C@]4(C)[C@H]3C[C@H](O)[C@]12C [TDCA-3S]	49.1
12.3 ± 0.891	10.5 ± 0.762	C[C@H](CCC(=O)NCCS(=O)(=O)O)[C@H]1CC[C@H]2[C@@H]3CC[C@@H]4C[C@H](O)CC[C@]4(C)[C@H]3CC[C@]12C [TLCA]	–

Structure (SMILES)	IC50 [1] [µM]	Ki [2] [µM]	inhibition at 50 µM [3] [%]
C[C@H](CCC(=O)NCC(=O)O)[C@H]1CC[C@H]2[C@@H]3CC[C@@H]4C[C@H](O)CC[C@]4(C)[C@H]3CC[C@]12C [GLCA]	9.9 ± 0.475	8.46 ± 0.406	–
